The target in this experiment is recombinant DYRK1A kinase (Homo sapiens, UniProt Q13627). As to the kind of experiment: DYRK1A kinase assay (Ser/Thr 18 peptide Z-lyte FRET). The format is biochemical. The note with it: DYRK1A kinase activity; 15 μM ATP, 4 μM Ser/Thr peptide 18, one hour at room temperature. How it is done: Representative compounds were screened using the assay procedure for DYRK1A kinase activity as described below.
Each compound was dissolved in DMSO as a 10 mM stock and used to prepare compound source plates. Serial dilution (1:3, 11-point dose-response curves from 10 μM to 0.00016 μM) and compound transfer was performed using the ECHO 550 (Labcyte, Sunnyvale, Calif.) into 1536-well black-walled round bottom plates (Corning).
The DYRK1A kinase assay was run using the Ser/Thr 18 peptide Z-lyte assay kit according to manufacturer's instructions (Life Technologies—a Division of Thermo-Fisher). This is a non-radioactive assay using fluorescence resonance energy transfer (FRET) between coumarin and fluorescein to detect kinase activity which is represented as a ratio of coumarin emission/fluorescein emission.
Briefly, recombinant DYRK1A kinase, ATP and Ser/Thr peptide 18 were prepared in 1× Kinase buffer to final concentrations of 0.25 μg/mL, 15 μM, and 4 μM respectively. The mixture was allowed to incubate with the representative compounds for one hour at room temperature. All reactions were performed in duplicate. Unphosphorylated (“0% Control”) and phosphorylated (“100% control”) forms of Ser/Thr 18 served as control reactions. Additionally, an 11-point dose-response curve of Staurosporine (1 uM top) was run to serve as a positive compound control.
After incubation, Development Reagent A was diluted in Development Buffer then added to the reaction and allowed to further incubate for one hour at room temperature. The plate was read at Ex 400 Em 455 to detect the coumarin signal and Ex 400 Em 520 to measure the signal (EnVision Multilabel Plate Reader, PerkinElmer).
The Emission ratio (Em) was calculated as a ratio of the coumarin (C) emission signal (at 445 nm)/Fluorescein (F) emission signal (at 520 nm). The percent phosphorylation was then calculated using the following formula: [1−((Em ratio×F100%)−C100%)/((C0%−C100%)+(Em ratio×(F100%−F0%)))]. Dose-response curves were generated, and inhibitory concentration (IC50) values were calculated using non-linear regression curve fit in the Dotmatics' Studies Software (Bishops Stortford, UK).
In general, EC50 refers to the concentration at which the effect is half-maximal. As to `c1cnc2[nH]cc(-c3ccnc4[nH]ccc34)c2c1` [Compound 2, 1H,1′H-3,4′-Bipyrrolo[2,3-b]pyridine], the EC50 turned out to be 0.05 µM.

As to `Cn1cc2cc(-c3c[nH]c4ncccc34)ccc2n1` [Compound 3, 2-Methyl-5-(1H-pyrrolo[2,3-b]pyridin-3-yl)-2H-indazole], the EC50 was found to be 0.006 µM.

With `c1cnc2sc(-c3c[nH]c4ncccc34)nc2c1` [Compound 4, 2-(1H-Pyrrolo[2,3-b]pyridin-3-yl)thiazolo[5,4-b]pyridine], the EC50 came out at 0.007 µM.

For the molecule `c1cnc2[nH]cc(-c3cc4ccncc4s3)c2c1` [Compound 5, 2-(1H-Pyrrolo[2,3-b]pyridin-3-yl)thieno[2,3-c]pyridine], the EC50 came out at 0.01 µM.

In the case of `c1cnc2[nH]cc(-c3nc4cnccc4[nH]3)c2c1` [Compound 7, 2-(1H-Pyrrolo[2,3-b]pyridin-3-yl)-1H-imidazo[4,5-c]pyridine], the half-maximal effective concentration (EC50) is 0.201 µM.

`O=C1NCCn2nc(-c3c[nH]c4ncccc34)cc21` [Compound 8, 2-(1H-Pyrrolo[2,3-b]pyridin-3-yl)-6,7-dihydropyrazolo[1,5-a]pyrazin-4(5H)-one]: the EC50 was 0.007 µM.

Regarding `CC1(C)NC(=O)c2cc(-c3c[nH]c4ncccc34)nn21` [Compound 9, 6,6-Dimethyl-2-(1H-pyrrolo[2,3-b]pyridin-3-yl)-5,6-dihydro-4H-imidazo[1,5-b]pyrazol-4-one], the EC50 came to 0.019 µM.

For `O=C1NCCn2cc(-c3c[nH]c4ncccc34)cc21` [Compound 10, 7-(1H-Pyrrolo[2,3-b]pyridin-3-yl)-3,4-dihydropyrrolo[1,2-a]pyrazin-1(2H)-one], the EC50 was 0.014 µM.

In the case of `O=C1NCCc2sc(-c3c[nH]c4ncccc34)cc21` [Compound 11, 2-(1H-Pyrrolo[2,3-b]pyridin-3-yl)-6,7-dihydrothieno[3,2-c]pyridin-4(5H)-one], the EC50 is 0.012 µM.

Take `c1cnc2[nH]cc(-c3ccc4nccn4c3)c2c1` [Compound 12, 6-(1H-Pyrrolo[2,3-b]pyridin-3-yl)imidazo[1,2-a]pyridine]: the EC50 stood at 0.003 µM.

On to `Cc1cn2cc(-c3c[nH]c4ncccc34)cc(F)c2n1` [Compound 13, 8-Fluoro-2-methyl-6-(1H-pyrrolo[2,3-b]pyridin-3-yl)imidazo[1,2-a]pyridine], for which the EC50 came out at 0.021 µM.

Turning to `CN1CCC(NC(=O)c2cnc3ccc(-c4c[nH]c5ncccc45)cn23)CC1` [Compound 14, N-(1-Methylpiperidin-4-yl)-6-(1H-pyrrolo[2,3-b]pyridin-3-yl)imidazo[1,2-a]pyridine-3-carboxamide], the EC50 worked out at 0.001 µM.

On to `CN(C)Cc1cnc2ccc(-c3c[nH]c4ncccc34)cn12` [Compound 18, 1-(6-(1H-Pyrrolo[2,3-b]pyridin-3-yl)imidazo[1,2-a]pyridin-3-yl)-N,N-dimethylmethanamine], for which the EC50 is 0.017 µM.

Regarding `c1cnc2[nH]cc(-c3cn4ccnc4cn3)c2c1` [Compound 20, 6-(1H-Pyrrolo[2,3-b]pyridin-3-yl)imidazo[1,2-a]pyrazine], the EC50 worked out at 0.01 µM.

On to `CN1CCN(C(=O)c2cnc3cnc(-c4c[nH]c5ncccc45)cn23)CC1` [Compound 21, (6-(1H-Pyrrolo[2,3-b]pyridin-3-yl)imidazo[1,2-a]pyrazin-3-yl)(4-methylpiperazin-1-yl)methanone], for which the EC50 is 0.016 µM.

For the molecule `Cc1nc2c(F)cc(-c3c[nH]c4ncccc34)cc2n1C1CCNCC1` [Compound 23, 4-Fluoro-2-methyl-1-(piperidin-4-yl)-6-(1H-pyrrolo[2,3-b]pyridin-3-yl)-1H-benzo[d]imidazole], the EC50 is 0.002 µM.

Take `Cc1nc2c(F)cc(-c3c[nH]c4ncccc34)cc2n1C1CCN(C)CC1` [Compound 24, 4-Fluoro-2-methyl-1-(1-methylpiperidin-4-yl)-6-(1H-pyrrolo[2,3-b]pyridin-3-yl)-1H-benzo[d]imidazole]: the EC50 is 0.001 µM.

For the molecule `Cc1nc2ccc(-c3c[nH]c4ncccc34)nc2n1C(C)C` [Compound 27, 3-Isopropyl-2-methyl-5-(1H-pyrrolo[2,3-b]pyridin-3-yl)-3H-imidazo [4,5-b]pyridine], the EC50 amounted to 0.002 µM.

Source of the values: patent US20230192686A1, “1H-PYRROLO[2,3-B]PYRIDINES AND PREPARATION AND USES THEREOF” (BioSplice Therapeutics, Inc., priority 2021, published 2023).
